Test results: patent US9340622B2, “Synthetic immunogen useful for generating long lasting immunity and protection against pathogens” (priority 2010, dated 2016)
Like-named read-outs stand apart in the source and are kept apart here. Ends that are not written are not given here.

Columns and labels:
CD4 T cells = experiment: Intracellular staining for IFN-γ in CD4 T cells; type: cell-based; details: splenocytes of mice immunized with lipopeptide containing SEQ ID No. 1, cultured 48 h, restimulated 6 h, FIG. 6
Procedure: FIG. 6. CD4 T cells from mice immunized with immunogen containing SEQ ID No. 1 produced IFN-γ on in vitro peptide restimulation. Mice were immunized with lipopeptide containing SEQ ID No. 1. Splenocytes from the immunized mice were cultured with A) medium; B) Pam2Cys; C) non-lipidated peptide (SEQ ID No. 1); D) lipopeptide (containing SEQ ID No. 1) for 48 h. Cells were restimulated for 6 h and stained for surface CD4 and intracellular for IFN-γ. Representative flow cytometry contours depict IFN-γ producing CD4 T cells and numbers indicate their percentage.
Mice were immunized with the developed immunogenic lipopeptides (20 nmol/animal). Twenty-one days later, a booster dose (10 nmol) was administered. Animals were sacrificed 45 days post booster immunization.
Lymphocytes (2×10^6 cells/ml) were cultured with peptides in triplicates in 96 w plate for 48 h. Cells were pooled and washed twice with wash buffer (PBS containing FBS-1%). Cells were re-stimulated with PMA (50 ng/ml) and ionomycin (1 μg/ml) for 6 h/37° C. and in the last 4 h brefeldin A (10 μg/ml) was added in cultures. After 6 h of activation, cells, were washed twice with staining buffer (BSA-1%, NaN3-0.01% in PBS). […] Finally, cells were fixed in parafolmaldehyde-1% and acquired on FACS Aria II and data was analyzed by FACS DIVA (BD Biosciences, San Jose, Calif.).

[1] = test system: human peripheral blood mononuclear cells; experiment: T cell proliferation of human PBMCs (3H-thymidine incorporation); type: cell-based; details: compared to non-lipidated peptide counterparts, FIG. 9
Bone marrow derived DCs = experiment: Activation and MHC markers on bone marrow derived DCs; type: cell-based, C57BL/6 mice; details: BMDCs day 7, treated 12 hrs
Procedure: FIG. 4. Lipidated peptides [immunogens] enhance DC maturation. (A) BALB/c mice were immunized with lipidated peptides [immunogen] and free peptides. Total splenocytes were recovered and in vitro stimulated with the lipidated and free peptides. After 48 hrs of incubation, they were harvested and stained for DC population (CD11c^+/CD40^+). CD11c^+/CD40^+ population indicates mature DCs. Lipidated immunogen constructs were able to induce DC maturation compared to their unlipidated counterparts. (B) Bone marrow derived DCs from C57BL/6 mice were cultured using standard protocol. On day 7 of culture they were treated with free or lipidated peptides for 12 hrs and then the cells were harvested and stained for activation markers. […] (C) On day 7 of culture, bone marrow derived DCs were treated with free or lipidated peptides for 12 hrs. Later on, the cells were harvested and stained for CD74 (immature MHC) and IA^b (mature MHC).

M. tuberculosis H37Rv [2] = test system: M. tuberculosis H37Rv; set-up: species or system mice; details: mouse, in vivo
M. tuberculosis H37Rv [3] = test system: M. tuberculosis H37Rv; set-up: species or system Duncan-Hartley guinea pigs; details: guinea pig, in vivo
[4] = compared to free peptide, FIG. 4C

| Molecule | production of IFN-γ in CD4 T cells (CD4 T cells) | proliferation of human PBMCs from sputum positive tuberculosis patient [1] | expression of CD74 (immature MHC) (Bone marrow derived DCs; [4]) | expression of IA^b (mature MHC) (Bone marrow derived DCs; [4]) | expression of CD80, CD86, CD40 (Bone marrow derived DCs; compared to p91 treated cells, FIG. 4B) | Mycobacterial load in lungs (CFU) (M. tuberculosis H37Rv [2]) | Mycobacterial load in lungs (CFU) (M. tuberculosis H37Rv [3]) |
| --- | --- | --- | --- | --- | --- | --- | --- |
| CCCCCCCCCCCCCCCC(=O)OCC(CSC[C@H](N)C(=O)O)OC(=O)CCCCCCCCCCCCCCC (stereo partly drawn) [Pam2Cys, S-[2,3-bis(palmitoyloxy)propyl]cysteine, reference compound] | did not elicit production of IFN-γ | – | – | – | – | – | – |
| L91: immunogen wherein X1=SEQ ID. No. 1 and X2=0; peptide linked via two serines to Pam2Cys (SEFAYGSFVRTVSLPVGADE; also: linked via two serines to Pam2Cys, end not given here; listed as Mycobacterium tuberculosis) | predominant production of IFN-γ | enhanced the proliferation | decrease in expression | enhanced expression | enhanced expression | restricted the growth of mycobacterium significantly | significantly lower bacterial load in lungs |
